Data on five compounds can be found in patent EP1200406B1, “CYCLIC AMIDES AND IMIDES HAVING SELECTIVE ANTAGONIST ACTIVITY AT ALPHA-1D ADRENERGIC RECEPTOR” (RECORDATI INDUSTRIA CHIMICA E FARMACEUTICA S.p.a., priority 1999, dated 2001).

Assay [1] deals with T1, human recombinant α1b adrenoceptor (Homo sapiens, UniProt P35368).
T1 construct: expressed in transfected cells; host or cells: CHO cells (membranes)
T1 sequence (P35368 1-520): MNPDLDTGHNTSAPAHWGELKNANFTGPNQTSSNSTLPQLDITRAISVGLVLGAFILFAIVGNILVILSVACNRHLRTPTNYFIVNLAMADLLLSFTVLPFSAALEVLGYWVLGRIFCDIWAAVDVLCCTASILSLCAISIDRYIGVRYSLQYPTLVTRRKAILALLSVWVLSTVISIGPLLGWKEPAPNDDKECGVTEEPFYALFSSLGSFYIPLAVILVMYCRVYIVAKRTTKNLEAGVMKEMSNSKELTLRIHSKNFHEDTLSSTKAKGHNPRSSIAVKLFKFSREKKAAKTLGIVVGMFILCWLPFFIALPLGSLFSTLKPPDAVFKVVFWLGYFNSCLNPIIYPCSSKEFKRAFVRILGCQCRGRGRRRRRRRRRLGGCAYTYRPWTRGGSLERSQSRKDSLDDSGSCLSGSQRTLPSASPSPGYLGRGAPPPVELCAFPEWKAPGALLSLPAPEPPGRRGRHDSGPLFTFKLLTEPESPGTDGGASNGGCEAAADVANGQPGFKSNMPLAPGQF
Kind of assay: Radioligand binding ([3H]prazosin) on membranes of CHO cells expressing cloned α1b adrenoceptor. The following applies: human cloned receptor, CHO cell membranes, 0.2 nM [3H]prazosin; read-out: Affinity (Ki) α1b. How it is done: (§1) The determination of affinity for cloned subtypes of human α1 adrenergic receptors was performed in membranes from CHO cells (chinese hamster ovary cells) transfected by electroporation with DNA expressing the genes encoding each α1-adrenoceptor subtype, namely α1a, α1b and α1d.. Cloning and stable expression of the human α1-adrenoceptor gene were performed as previously described (Testa et al., Pharmacol. Comm. 6, 79-86 (1995)). CHO cell membranes were incubated in […] Tris pH 7.4 with 0.2 nM [^3H]prazosin, in a final volume of 1.02 ml for 30 minutes at 25°C, in the absence or presence of competing drugs (1 pM-10 µM). Non-specific binding was determined in the presence of 10 µM phentolamine. Incubation was stopped by addition of ice-cold Tris buffer and rapid filtration through 0.2% polyethyleneimine pretreated Schleicher & Schuell GF52 filters. Genomic clone G-21 coding for the human 5-HT1A-serotoninergic receptor was stably transfected in a human cell line (HeLa) (Fargin et al., J. Biol. Chem. 284, 14848-14852 (1989)). The HeLa cells were grown as monolayers in Dulbecco's modified Eagle's medium (DMEM), supplemented with 10% foetal calf serum and gentamicin (100 µg/ml), 5% CO2, at 37°C. The cells were detached from the growth flask at 95% confluence by a cell scraper and were lysed in ice-cold 5 mM Tris and 5-mM EDTA buffer (pH 7.4). The homogenates were centrifuged at 40000 x g x 20 minutes and the membranes were re-suspended in a small volume of ice-cold 5 mM Tris and 5-mM EDTA buffer (pH 7.4) and immediately frozen and stored at -70°C until use. On the experiment day, the cell membranes were re-suspended in a buffer containing 50 mM Tris (pH 7.4), 2.5 mM MgCl2, 10 µM pargyline (Fargin et al., Nature 335, 358-360 (1988)). […] The incubation was stopped by addition of ice-cold Tris buffer and rapid filtration through 0.2%-polyethyleneimine-pretreated Schleicher & Schuell filters. The inhibition of specific binding of the radioligands by the drugs was analysed to estimate the IC50 value by using the non-linear curve-fitting programme Allfit (De Lean et al., Am. J. Physiol. 235, E97-E102 (1978)). The IC50 value was converted to an affinity constant (Ki) by the equation of Cheng & Prusoff (Biochem. Pharmacol. 22, 3099-3108 (1973)). Data were expressed as mean of Ki.

A further assay deals with T2, Rat aorta α1D (Rattus norvegicus, UniProt P23944).
T2 construct: from tissue; host or cells: rat thoracic aorta, helicoidal strips
T2 sequence (P23944 1-561): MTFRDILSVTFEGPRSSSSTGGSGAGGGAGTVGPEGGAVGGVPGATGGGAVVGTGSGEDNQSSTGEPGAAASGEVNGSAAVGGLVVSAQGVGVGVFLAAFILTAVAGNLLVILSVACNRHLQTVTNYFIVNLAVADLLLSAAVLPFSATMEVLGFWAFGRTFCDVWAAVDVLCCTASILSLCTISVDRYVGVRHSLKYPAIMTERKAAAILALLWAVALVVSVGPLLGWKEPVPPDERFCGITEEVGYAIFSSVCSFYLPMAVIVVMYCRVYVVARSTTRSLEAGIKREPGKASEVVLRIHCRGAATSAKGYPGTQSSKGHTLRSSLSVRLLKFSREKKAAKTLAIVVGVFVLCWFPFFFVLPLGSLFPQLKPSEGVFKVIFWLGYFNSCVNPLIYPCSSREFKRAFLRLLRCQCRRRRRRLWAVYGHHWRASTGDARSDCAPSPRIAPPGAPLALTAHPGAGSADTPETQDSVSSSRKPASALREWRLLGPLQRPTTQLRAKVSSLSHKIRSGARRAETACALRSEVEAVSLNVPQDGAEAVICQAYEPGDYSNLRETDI
Nature of the assay: Functional antagonism of noradrenaline-induced contraction, rat aorta strips. Format: cell-based, Sprague Dawley rats. Conditions: noradrenaline as agonist, 30 minutes incubation, Schild plot; read-out: Functional affinity pKB, Rat aorta α1D (converted). How it is done:
In vitro assessment of functional antagonism for α1-adrenoceptor subtypes
Thoracic aorta was obtained from Sprague Dawley rats, cut in helicoidal strips and placed in Krebs solution containing desmethylimipramine (0.1 µM), corticosterone (1 µM), propranol (1 µM) and yohimbine (0.1 µM). The strips were mounted for isotonic tension recording in an organ bath containing the above Krebs buffer enriched and aerated constantly with 95% O2 and 5% CO2, maintained at 37°C and loaded with 1.5 g. After an equilibration period, the strips were primed twice with 10 µM noradrenaline, then concentration/response-to-the-agonist curves were constructed before (basal) and after 30 minutes incubation with single antagonist concentrations (response). The Schild-plot parameters were evaluated by linear-regression analysis according to Tallarida and Murray (Manual of Pharmacologic Calculations with Computer Programs, 53-56, Springer-Verlag).

In assay [2] the target is T3, human 5-HT1A-serotoninergic receptor (Homo sapiens, UniProt P08908).
T3 construct: expressed in transfected cells; host or cells: HeLa cells (membranes)
T3 sequence (P08908 1-422): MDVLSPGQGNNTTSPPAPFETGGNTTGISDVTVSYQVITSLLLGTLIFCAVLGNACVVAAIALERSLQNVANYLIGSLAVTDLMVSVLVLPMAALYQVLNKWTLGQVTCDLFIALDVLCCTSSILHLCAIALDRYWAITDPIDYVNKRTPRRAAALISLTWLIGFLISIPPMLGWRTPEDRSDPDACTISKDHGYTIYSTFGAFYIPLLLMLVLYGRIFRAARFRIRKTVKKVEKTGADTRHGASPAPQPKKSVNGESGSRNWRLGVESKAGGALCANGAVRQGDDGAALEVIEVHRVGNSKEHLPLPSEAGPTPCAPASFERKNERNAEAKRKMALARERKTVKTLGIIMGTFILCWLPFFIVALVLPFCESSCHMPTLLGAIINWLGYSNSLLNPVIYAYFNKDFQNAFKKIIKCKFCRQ
Kind of assay: Radioligand binding ([3H]8-OH-DPAT) on membranes of HeLa cells expressing cloned 5-HT1A receptor. The following applies: read-out: Affinity (Ki) 5-HT1A. As for the experimental part:
as §1

The target in assay [3] is T4, human recombinant α1a adrenoceptor (Homo sapiens, UniProt P35348).
T4 construct: expressed in transfected cells; host or cells: CHO cells (membranes)
T4 sequence (P35348 1-466): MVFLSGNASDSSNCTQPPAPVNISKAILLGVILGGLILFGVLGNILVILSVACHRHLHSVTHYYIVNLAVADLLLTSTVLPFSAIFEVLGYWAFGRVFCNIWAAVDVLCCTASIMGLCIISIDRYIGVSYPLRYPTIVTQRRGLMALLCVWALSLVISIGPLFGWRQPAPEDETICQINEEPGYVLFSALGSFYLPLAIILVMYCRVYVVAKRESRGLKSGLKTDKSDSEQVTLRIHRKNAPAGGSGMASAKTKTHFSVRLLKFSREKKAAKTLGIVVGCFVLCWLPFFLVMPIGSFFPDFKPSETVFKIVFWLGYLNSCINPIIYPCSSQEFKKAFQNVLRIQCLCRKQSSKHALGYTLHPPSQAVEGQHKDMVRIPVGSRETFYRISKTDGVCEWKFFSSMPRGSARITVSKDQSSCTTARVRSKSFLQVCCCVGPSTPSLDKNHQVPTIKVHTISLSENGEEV
Nature of the assay: Radioligand binding ([3H]prazosin) on membranes of CHO cells expressing cloned α1a adrenoceptor. The following applies: human cloned receptor, CHO cell membranes, 0.2 nM [3H]prazosin; read-out: Affinity (Ki) α1a. How it is done: as §1, with “Genomic clone G-21 coding for the human 5-HT1A-serotoninergic receptor was stably transfected in a human cell line (HeLa) (Fargin et al., J. Biol. Chem. 284, 14848-14852 (1989)).” left out

Assay [4] has as its target T5, human recombinant α1d adrenoceptor (Homo sapiens, UniProt P25100).
T5 construct: expressed in transfected cells; host or cells: CHO cells (membranes)
T5 sequence (P25100 1-572): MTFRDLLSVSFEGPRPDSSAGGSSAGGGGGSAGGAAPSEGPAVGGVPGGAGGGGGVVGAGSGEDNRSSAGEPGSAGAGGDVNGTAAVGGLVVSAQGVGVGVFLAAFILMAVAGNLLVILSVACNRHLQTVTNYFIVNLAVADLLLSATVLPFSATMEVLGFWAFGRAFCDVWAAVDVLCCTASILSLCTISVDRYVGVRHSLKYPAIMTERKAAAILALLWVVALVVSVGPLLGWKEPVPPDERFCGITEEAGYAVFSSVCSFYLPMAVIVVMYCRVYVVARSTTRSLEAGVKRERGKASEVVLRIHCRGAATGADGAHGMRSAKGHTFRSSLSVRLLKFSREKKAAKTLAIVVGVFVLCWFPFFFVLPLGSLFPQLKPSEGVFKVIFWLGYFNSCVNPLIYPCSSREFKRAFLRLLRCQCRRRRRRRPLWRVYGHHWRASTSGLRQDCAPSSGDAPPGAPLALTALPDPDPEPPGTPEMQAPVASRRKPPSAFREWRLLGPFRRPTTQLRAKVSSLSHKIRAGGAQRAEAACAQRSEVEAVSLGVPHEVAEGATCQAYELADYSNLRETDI
Kind of assay: Radioligand binding ([3H]prazosin) on membranes of CHO cells expressing cloned α1d adrenoceptor. Conditions: human cloned receptor, CHO cell membranes, 0.2 nM [3H]prazosin; read-out: Affinity (Ki) α1d. As for the experimental part:
as §1, with “Genomic clone G-21 coding for the human 5-HT1A-serotoninergic receptor was stably transfected in a human cell line (HeLa) (Fargin et al., J. Biol. Chem. 284, 14848-14852 (1989)).” left out

The mark [5] stands for this setting: human cloned receptor, HeLa cell membranes, 1.2 nM [3H]8-OH-DPAT.

The structures appear in SMILES notation. Where two headings read alike, the source gives them in different places. Bounds are passed on as bounds.

Usually Ki stands for a dissociation constant, usually derived from enzyme kinetics or from competition with a known ligand. For the compound `O=C1CC2(CCCC2)CCN1CCN1CCN(c2cc(Cl)ccc2Cl)CC1` [Example 19, 8-{2-[4-(2,5-Dichlorophenyl)-1-piperazinyl]-ethyl}-8-azaspiro[4.5]decane-7-one], the inhibition constant Ki in assay [1] was determined as 10.6 nM; in assay [2] (setting [5]) it was 17.4 nM. Moreover, the Kb on Rat aorta α1D was 1.29 nM.

As to `Cc1ccc(Cl)c(N2CCN(CCN3C(=O)CC4(CCCC4)CC3=O)CC2)c1` [Example 3, 8-{2-[4-(2-Chloro-5-methylphenyl)-1-pirerazinyl]-ethyl}-8-azaspiro[4.5]decane-7,9-dione], the Ki in assay [1] is 193 nM; in assay [3], 126 nM; in assay [2] (setting [5]), 69.5 nM.

Turning to `O=C1CC2(CCCCCC2)CC(=O)N1CCN1CCN(c2cc(Cl)ccc2Cl)CC1` [Example 26, 3-{2-[4-(2,5-Dichlorophenyl)-1-piperazinyl]-ethyl}-3-azaspiro[5.6]dodecane-2,4-dione], the inhibition constant (Ki) in assay [4] came to 0.96 nM; in assay [2], 35.3 nM.

For `O=C1CC2(CCCCC2)CCN1CCN1CCN(c2cc(Cl)ccc2Cl)CC1` [Example 25, 3-{2-[4-(2,5-Dichlorophenyl)-1-piperazinyl]-ethyl}-3-azaspiro[5.5]undecane-2-one], the inhibitory constant (Ki) came out at 0.66 nM in assay [4] and 40.4 nM in assay [2].

As to `O=C1CCC(=O)N1CCN1CCN(c2cc(Cl)ccc2Cl)CC1` [Example 12, 1-{2-[4-(2,5-Dichlorophenyl)-1-piperazinyl]-ethyl}-pyrrolidine-2,5-dione], the Ki in assay [4] is 7.78 nM; in assay [1] it was 86.4 nM; in assay [2] it was more than 1000 nM.
